In patent US20090181910A1, “METHOD OF PREVENTION AND ALLEVIATION OF TOXICITY BY MODULATION OF IRF3” (priority 2006, published 2009):

Legend:
Cyp3A11 = experiment: Liver RNA Q-PCR, polyI:C/APAP-treated mice: Cyp3A11; conditions: polyI:C 100 μg i.v.; FIG. 1C
CYP3A4 = experiment: Huh7 Q-PCR: CYP3A4
RXRα = experiment: BMM anti-RXRα Western blot; format: cell-based, Murine; conditions: polyI:C and LG268 treatment, 24 hrs; FIG. 8e
[1] = test system: PXR/RXR ER6 binding region of CYP3A4; experiment: ChIP with anti-RXRα antibody at CYP3A4; format: cell-based, human; conditions: combinatorial treatment with rifampicin 25 μM and polyI:C, 24 hours; FIG. 10g and h
Experimental: FIG. 10: PolyI:C transcriptional repression of RXRα is critical for repression of nuclear receptor target genes. a, Wildtype, IRF3^−/− and IFNAR^−/− BMMs were stimulated with Control (DMSO), or LG268 (10 nM) with or without polyI:C (1 μg/ml). RNA was analyzed by Q-PCR. b, pCMV-RAW 264.7 cells (MT) or pCMV-Hes1-RAW 264.7 cells (Hes1) were stimulated with Control (DMSO) and 9cRA with or without polyI:C (1 μg/ml) for 24 hrs. RNA was analyzed by Q-PCR. c, RAW264.7 cells transfected with siNS or siHes1 duplex oligos were stimulated with Control (DMSO) and 9cRA (10 μM) with or without polyI:C (1 μg/ml) for 24 hours. RNA was analyzed by Q-PCR. d, pBabe-RAW 264.7 cells (Raw_MT) and pBabe-RXRα-RAW264.7 cells (Raw-RXRα) were stimulated with Control (DMSO) or LG268 (10 nM) with or without polyI:C (1 μg/ml) for 24 hrs. RNA was analyzed by Q-PCR. e, pBabe-Huh7 cells (Huh7 MT) and pBabe-RXRα-Huh7 cells (Huh7-RXRα) were stimulated with Control (DMSO) and rifampicin (25 μM) with or without polyI:C (2 μg/ml, transfected). RNA was analyzed by Q-PCR. f, pBabe-Huh7 cells (Huh7 MT) and pBabe-RXRα-Huh7 cells (Huh7_RXRα) were stimulated with Control (DMSO) and ASA (20 μg/ml) with or without polyI:C (2 μg/ml, transfected). RNA was analyzed by Q-PCR. g,h, BMMs were stimulated with rifampicin (25 μM) and polyI:C (1 μg/ml) for 24 hours. […] PCR products on gel are quantified by ImageJ, normalized to Input. […]

Huh7 cells = experiment: Rhodamine 123 assay, mitochondrial membrane potential; format: cell-based, human; conditions: Huh7 cells co-treated with ASA 20 μg/ml and polyI:C 1 μg/ml transfected, 24 hours; mock-transfected vs RXRα overexpressing
Experimental: FIG. 15: PolyI:C potentiation of ASA-induced mitochondrial damage. pBabe-Huh7 cells (Huh7_MT) and pBabe-RXRα-Huh7 cells (Huh7 RXRα) were stimulated with Control (DMSO) and ASA (20 μg/ml) with or without polyI:C (1 μg/ml, transfected) for 24 hours. Cells were treated with 5 μg/ml of rhodamine 123 (Invitrogen) for 30 min, trypsinized and resuspended in PBS. Flow cytometry was done to determine rhodamine 123 uptake.

[2] = Hendrix et al. 1993; cited from earlier work
[3] = test system: hepatic LXR, FXR and PPARα target genes; format: cell-based, human
Cyp1A2 = experiment: Liver RNA Q-PCR, polyI:C/APAP-treated mice: Cyp1A2; conditions: polyI:C 100 μg i.v.; FIG. 1B

With “polyinosinic:polycytidylic acid [polyI:C]” the “basal Cyp3A11 mRNA level in liver” value (Cyp3A11) was “potently repressed”, the “rifampicin induction of CYP3A4” value (CYP3A4; Huh7 cells with RXRα overexpression, FIG. 10e) was “no longer repressed CYP3A4” and the “rifampicin induction of CYP3A4” value (CYP3A4; Huh7 cells, rifampicin 25 μM, transfected polyI:C 2 μg/ml) was “capable of repressing rifampicin induction”. The “RXRα protein levels in IRF3^−/− BMMs” value (RXRα) was “significantly higher than in WT or IFNAR^−/− BMMs”, the “RXRα present on CYP3A4 promoter (ChIP)” value [1] was “maximal loss of RXRα in the PXR/RXR ER6 binding region of CYP3A4” and the “mitochondrial membrane potential (rhodamine 123)” value (Huh7 cells) was “loss of mitochondrial membrane potential in mock-transfected Huh7 cells co-treated with ASA and polyI:C, but not in Huh7 cells overexpressing RXRα”. For the same substance, the “toxicity of polyI:C” value [2] was “can be taken at high dosages without any toxicity”, the “effect on LXR, FXR and PPARα-mediated induction of target genes” value [3] was “inhibited” and the “basal Cyp1A2 mRNA level in liver” value (Cyp1A2) was “potently repressed”.
